Calls of active or inactive are those of the source.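 How the source made its calls: active means fitted AC50 at or below twice the top valid dose, with signal falling as dose rises; inconclusive means flat fit between -30 and -70%, or poor fit; inactive means the rest, including rising effects.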

One test deals with Kelch-like ECH-associated protein 1 (Homo sapiens) (UniProt Q14145). Description: Keap1-Nrf2 protein-protein interaction inhibitors, dose response, biochemical, fluorescence polarization, dry powder samples (AID 651798). Conditions: Keap1 Kelch/FITC-Nrf2 peptide fluorescence polarization.
Kelch-like ECH-associated protein 1 (Homo sapiens), sequence (Q14145 whole entry, looked up): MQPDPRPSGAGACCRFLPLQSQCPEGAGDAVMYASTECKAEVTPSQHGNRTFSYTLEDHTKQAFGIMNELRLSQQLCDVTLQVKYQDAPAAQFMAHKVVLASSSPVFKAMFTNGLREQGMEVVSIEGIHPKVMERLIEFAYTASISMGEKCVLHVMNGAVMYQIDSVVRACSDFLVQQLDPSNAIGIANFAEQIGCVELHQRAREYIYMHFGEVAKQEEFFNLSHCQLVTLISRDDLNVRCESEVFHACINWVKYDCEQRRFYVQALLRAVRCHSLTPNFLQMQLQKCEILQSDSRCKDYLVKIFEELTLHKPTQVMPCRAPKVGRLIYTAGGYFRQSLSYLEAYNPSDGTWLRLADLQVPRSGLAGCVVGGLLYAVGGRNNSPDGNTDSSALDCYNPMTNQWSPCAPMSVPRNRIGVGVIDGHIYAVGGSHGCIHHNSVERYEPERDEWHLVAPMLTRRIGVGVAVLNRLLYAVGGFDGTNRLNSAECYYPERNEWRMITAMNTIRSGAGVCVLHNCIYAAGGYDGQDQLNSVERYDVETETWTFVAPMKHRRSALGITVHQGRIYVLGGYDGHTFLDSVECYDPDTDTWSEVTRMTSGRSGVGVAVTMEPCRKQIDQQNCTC
Regarding `NC(=O)c1ccccc1C(=O)NC[C@@H]1c2ccccc2CCN1C(=O)[C@@H]1CCCC[C@@H]1C(=O)O`, the AC50 is > 100 µM (inactive).
As to `CC(C)OC(=O)C(C(=O)C(F)(F)F)c1cc(NS(=O)(=O)c2ccccc2)c2ccccc2c1O` (configuration not stated), the AC50 is 21.8 µM.

The test is the same for the next values; noted with them: Keap1 Kelch/FITC-Nrf2 peptide fluorescence polarization; at 50 µM (top of the series).
For `Cc1ccc(S(=O)(=O)NNc2nc(N3CC(O)CC3C(=O)O)nc3ccccc23)cc1` (configuration not stated), the “activity change, negative = inhibition” value was “inactive”.
On to `O=C(O)[C@H]1CCCC[C@H]1C(=O)N1CCc2ccccc2C1` (racemic), for which the “activity change, negative = inhibition” value was “inactive”.
`O=C1c2ccccc2C(=O)N1C[C@H]1NCCc2ccccc21`: the “activity change, negative = inhibition” value is “inactive”.
As to `O=C(O)CCCC(=O)N1CCc2ccccc2C1CN1C(=O)c2ccccc2C1=O` (configuration not stated), the “activity change, negative = inhibition” value was “inactive”.
Turning to `O=C(O)C1CCCCC1C(=O)N1CCc2ccccc2C1c1ccccc1` (configuration not stated), the “activity change, negative = inhibition” value was “inactive”.

These data come from PubChem BioAssay AID651798 (Broad Institute, 2012).
